Reference: patent US20230399341A1, “7-PHENYL SUBSTITUTED 2-AMINOQUINAZOLINE INHIBITORS OF HPK1” (MERCK SHARP & DOHME LLC, priority 2020, published 2023)
pIC50: −log10 of the molar value.

Biological target: T1, Human HPK1, catalytic domain (Homo sapiens, UniProt Q92918)
T1 sequence (Q92918 1-346): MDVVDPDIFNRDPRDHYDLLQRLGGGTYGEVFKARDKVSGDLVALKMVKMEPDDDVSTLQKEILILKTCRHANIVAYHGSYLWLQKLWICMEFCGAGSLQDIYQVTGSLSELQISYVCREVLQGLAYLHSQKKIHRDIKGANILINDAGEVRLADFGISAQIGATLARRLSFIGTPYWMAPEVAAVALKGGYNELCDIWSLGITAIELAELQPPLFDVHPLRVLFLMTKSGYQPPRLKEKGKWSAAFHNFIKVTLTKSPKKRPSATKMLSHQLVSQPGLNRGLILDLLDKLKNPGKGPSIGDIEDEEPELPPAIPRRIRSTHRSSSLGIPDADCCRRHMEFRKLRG
Assay: HPK1-SLP76 TR-FRET Assay
Format: biochemical
Conditions: 75 pM HPK1, ATP 10 uM, SLP76 10 nM, 30 min pre-incubation, 60 min reaction

| pIC50 | Structure (SMILES) |
| --- | --- |
| 8.79 | COc1cc(C(C)S(C)(=O)=O)ccc1Nc1ncc2c(N)c(F)c(-c3cnc4c(c3C)NCCO4)cc2n1 (single isomer, unassigned) [Compound 2-55, (R or S)-6-fluoro-N˜2˜-{2-methoxy-4-[1-(methylsulfonyl)ethyl]phenyl}-7-(8-methyl-2,3-dihydro-1H-pyrido[2,3-b][1,4]oxazin-7-yl)quinazoline-2,5-diamine] |
| 9.99 | COc1cc(C(C)S(C)(=O)=O)ccc1Nc1ncc2c(N)c(F)c(-c3cnc4c(c3C)NCCO4)cc2n1 (single isomer, unassigned) [Compound 2-56, (R or S)-6-fluoro-N˜2˜-{2-methoxy-4-[1-(methylsulfonyl)ethyl]phenyl}-7-(8-methyl-2,3-dihydro-1H-pyrido[2,3-b][1,4]oxazin-7-yl)quinazoline-2,5-diamine] |
| 10.48 | Cc1c(-c2cc3nc(Nc4ccc5c(c4)CN(C)C(C)C5)ncc3c(N)c2F)cnc2c1NCCO2 (single isomer, unassigned) [Compound 2-85, (R or S)—N2-(2,3-dimethyl-1,2,3,4-tetrahydroisoquinolin-7-yl)-6-fluoro-7-(8-methyl-2,3-dihydro-1H-pyrido[2,3-b][1,4]oxazin-7-yl)quinazoline-2,5-diamine] |
| 10.42 | Cc1c(-c2cc3nc(Nc4ccc5c(c4)CN(C)C(C)C5)ncc3c(N)c2F)cnc2c1NCCO2 (single isomer, unassigned) [Compound 2-86, (R or S)—N2-(2,3-dimethyl-1,2,3,4-tetrahydroisoquinolin-7-yl)-6-fluoro-7-(8-methyl-2,3-dihydro-1H-pyrido[2,3-b][1,4]oxazin-7-yl)quinazoline-2,5-diamine] |
| 7.90 | COc1cc(CS(C)(=O)=O)ccc1Nc1ncc2c(N)c(F)c(-c3cnc4c(c3C)NCCO4)c(Cl)c2n1 (single isomer, unassigned) [Compound 2-99, (+ or −)-8-chloro-6-fluoro-N~2~-{2-methoxy-4-[(methylsulfonyl)methyl]phenyl}-7-(8-methyl-2,3-dihydro-1H-pyrido[2,3-b][1,4]oxazin-7-yl)quinazoline-2,5-diamine] |
| 10.15 | COc1cc2c(cc1Nc1ncc3c(N)c(F)c(-c4cnc5c(c4C)NCCO5)c(Cl)c3n1)CN(C(C)C)CC2 (single isomer, unassigned) [Compound 2-105, (+ or −)-8-chloro-6-fluoro-N2-(2-isopropyl-6-methoxy-1,2,3,4-tetrahydroisoquinolin-7-yl)-7-(8-methyl-2,3-dihydro-1H-pyrido[2,3-b][1,4]oxazin-7-yl)quinazoline-2,5-diamine] |
| 10.41 | Cc1c(-c2c(F)c(N)c3cnc(Nc4ccc5c(c4)CN(C(C)C)CC5)nc3c2Cl)cnc2c1NCCO2 (single isomer, unassigned) [Compound 2-113, 8-chloro-6-fluoro-N2-(2-isopropyl-1,2,3,4-tetrahydroisoquinolin-7-yl)-7-(8-methyl-2,3-dihydro-1H-pyrido[2,3-b][1,4]oxazin-7-yl)quinazoline-2,5-diamine] |
| 9.98 | CCS(=O)(=O)Cc1ccc(Nc2ncc3c(N)c(F)c(-c4cnc5c(c4C)NCC(C)O5)cc3n2)c(F)c1 (single isomer, unassigned) [Compound 2-125, (R or S)-7-(3,8-dimethyl-2,3-dihydro-1H-pyrido[2,3-b][1,4]oxazin-7-yl)-N2-(4-((ethylsulfonyl)methyl)-2-fluorophenyl)-6-fluoroquinazoline-2,5-diamine] |
| 10.05 | Cc1c(-c2cc3nc(Nc4ccc5c(c4)CC(C)(C)N(C)C5)ncc3c(N)c2F)cnc2c1NCCO2 (single isomer, unassigned) [Compound 2-126, 6-fluoro-7-(8-methyl-2,3-dihydro-1H-pyrido[2,3-b][1,4]oxazin-7-yl)-N2-(2,3,3-trimethyl-1,2,3,4-tetrahydroisoquinolin-6-yl)quinazoline-2,5-diamine] |
| 10.47 | Cc1c(-c2cc3nc(Nc4ccc5c(c4)CN(C)C(C)(C)C5)ncc3c(N)c2F)cnc2c1NCCO2 (single isomer, unassigned) [Compound 2-128, 6-fluoro-7-(8-methyl-2,3-dihydro-1H-pyrido[2,3-b][1,4]oxazin-7-yl)-N2-(2,3,3-trimethyl-1,2,3,4-tetrahydroisoquinolin-7-yl)quinazoline-2,5-diamine] |
| 9.90 | Cc1c(-c2c(F)c(N)c3cnc(Nc4ccc(CS(C)(=O)=O)cc4F)nc3c2Cl)cnc2c1NCCO2 (single isomer, unassigned) [Compound 2-131, 8-chloro-6-fluoro-N2-(2-fluoro-4-((methylsulfonyl)methyl)phenyl)-7-(8-methyl-2,3-dihydro-1H-pyrido[2,3-b][1,4]oxazin-7-yl)quinazoline-2,5-diamine] |
| 10.30 | Cc1c(-c2cc3nc(Nc4ccc5c(c4)CN(C)CC5)ncc3c(N)c2F)cnc2c1NCC(C)O2 (single isomer, unassigned) [Compound 2-141, (R or S)-7-(3,8-dimethyl-2,3-dihydro-1H-pyrido[2,3-b][1,4]oxazin-7-yl)-6-fluoro-N2-(2-methyl-1,2,3,4-tetrahydroisoquinolin-7-yl)quinazoline-2,5-diamine] |
| 10.30 | Cc1c(-c2cc3nc(Nc4ccc(C5CCN(C)C5=O)cc4)ncc3c(N)c2F)cnc2c1NCCO2 (single isomer, unassigned) [Compound 2-146, (R or S)-3-(4-{[5-amino-6-fluoro-7-(8-methyl-2,3-dihydro-1H-pyrido[2,3-b][1,4]oxazin-7-yl)quinazolin-2-ylamino}phenyl)-1-methylpyrrolidin-2-one] |

The remaining lines, values behind:

| Structure (SMILES) | pIC50 |
| --- | --- |
| COc1cc(C2CCN(C)C2=O)ccc1Nc1ncc2c(N)c(F)c(-c3cnc4c(c3C)NCCO4)cc2n1 (single isomer, unassigned) [Compound 2-57, (R or S)-3-(4-{[5-amino-6-fluoro-7-(8-methyl-2,3-dihydro-1H-pyrido[2,3-b][1,4]oxazin-7-ylquinazolin-2-yl]amino}-3-methoxyphenyl)-1-methylpyrrolidin-2-one] | 9.04 |
| Cc1c(-c2cc3nc(Nc4ccc(C(C)S(C)(=O)=O)cc4)ncc3c(N)c2F)cnc2c1NCCO2 (single isomer, unassigned) [Compound 2-62, (R or S)-6-fluoro-7-(8-methyl-2,3-dihydro-1H-pyrido[2,3-b][1,4]oxazin-7-yl)-N˜2˜-{4-[1-(methylsulfonyl)ethyl]phenyl}quinazoline-2,5-diamine] | 10.21 |
| Cc1c(-c2cc3nc(Nc4ccc(C(C)S(C)(=O)=O)cc4)ncc3c(N)c2F)cnc2c1NCCO2 (single isomer, unassigned) [Compound 2-63, (R or S)-6-fluoro-7-(8-methyl-2,3-dihydro-1H-pyrido[2,3-b][1,4]oxazin-7-yl)-N˜2˜-{4-[1-(methylsulfonyl)ethyl]phenyl}quinazoline-2,5-diamine] | 10.06 |
| COc1cc2c(cc1Nc1ncc3c(N)c(F)c(-c4cnc5c(c4C)NCCO5)c(Cl)c3n1)CN(C)CC2 (single isomer, unassigned) [Compound 2-93, (+ or −)-8-chloro-6-fluoro-N~2~-(6-methoxy-2-methyl-1,2,3,4-tetrahydroisoquinolin-7-yl)-7-(8-methyl-2,3-dihydro-1H-pyrido[2,3-b][1,4]oxazin-7-yl)quinazoline-2,5-diamine] | 10.67 |
| COc1cc(CS(C)(=O)=O)ccc1Nc1ncc2c(N)c(F)c(-c3cnc4c(c3C)NCCO4)c(Cl)c2n1 (single isomer, unassigned) [Compound 2-101, (+ or −)-8-chloro-6-fluoro-N~2~-{2-methoxy-4-[(methylsulfony])methyl] phenyl}-7-(8-methyl-2,3-dihydro-1H-pyrido[2,3-b][1,4]oxazin-7-yl)quinazoline-2,5-diamine] | 9.92 |
| Cc1c(-c2c(F)c(N)c3cnc(Nc4ccc5c(c4)CN(C)CC54CC4)nc3c2Cl)cnc2c1NCCO2 (single isomer, unassigned) [Compound 2-108, (+ or −)-8-chloro-6-fluoro-N2-(2′-methyl-2′,3′-dihydro-1′H-spiro[cyclopropane-1,4′-isoquinolin]-7′-yl)-7-(8-methyl-2,3-dihydro-1H-pyrido[2,3-b][1,4]oxazin-7-yl)quinazoline-2,5-diamine] | 10.87 |
| Cc1c(-c2cc3nc(Nc4cccc5c4CC(C)(C)N(C)C5)ncc3c(N)c2F)cnc2c1NCCO2 (single isomer, unassigned) [Compound 2-127] | 7.00 |
| CCS(=O)(=O)Cc1ccc(Nc2ncc3c(N)c(F)c(-c4cnc5c(c4C)NCC(C)O5)cc3n2)c(F)c1 (single isomer, unassigned) [Compound 2-129, (R or S)-7-(3,8-dimethyl-2,3-dihydro-1H-pyrido[2,3-b][1,4]oxazin-7-yl)-N2-(4-((ethylsulfonyl)methyl)-2-fluorophenyl)-6-fluoroquinazoline-2,5-diamine] | 9.34 |
| Cc1c(-c2cc3nc(Nc4ccc5c(c4)CN(C(C)C)CC5)ncc3c(N)c2F)cnc2c1NCC(C)O2 (single isomer, unassigned) [Compound 2-145, 7-(3,8-dimethyl-2,3-dihydro-1H-pyrido[2,3-b][1,4]oxazin-7-yl)-6-fluoro-N2-(2-isopropyl-1,2,3,4-tetrahydroisoquinolin-7-yl)quinazoline-2,5-diamine] | 10.29 |
| Cc1c(-c2cc3nc(Nc4ccc(C5CCN(C)C5=O)cc4)ncc3c(N)c2F)cnc2c1NCCO2 (single isomer, unassigned) [Compound 2-147, (R or S)-3-(4-{[5-amino-6-fluoro-7-(8-methyl-2,3-dihydro-1H-pyrido[2,3-b][1,4]oxazin-7-yl)quinazolin-2-yl]amino}phenyl)-1-methylpyrrolidin-2-one] | 10.12 |
| Cc1c(-c2c(F)c(N)c3cnc(Nc4ccc(N5CCOC5=O)cc4)nc3c2Cl)cnc2c1NCCO2 (single isomer, unassigned) [Compound 2-156] | 9.63 |
